Numbers after ± are expanded uncertainties.
Conditions: 101.33 kPa, Liquid; for viscosity: Concentric cylinders viscometry; for mass density: Vibrating tube method

CCn1cc[n+](C)c1.O=S(=O)([O-])O [1-ethyl-3-methylimidazolium hydrogen sulfate]
Conditions	mass density [kg/m3]	viscosity [mPa·s]
283.15 K	–	5756.7 ± 410
288.15 K	–	3635 ± 240
293.15 K	1368.86 ± 0.58	2389.9 ± 150
294.15 K	1368.25 ± 0.58	–
295.15 K	1367.63 ± 0.58	–
296.15 K	1367 ± 0.58	–
297.15 K	1366.38 ± 0.58	–
298.15 K	1365.77 ± 0.58	1628.4 ± 96
299.15 K	1365.14 ± 0.58	–
300.15 K	1364.53 ± 0.58	–
301.15 K	1363.91 ± 0.58	–
302.15 K	1363.29 ± 0.58	–
303.15 K	1362.67 ± 0.58	1144.8 ± 64
304.15 K	1362.05 ± 0.58	–
305.15 K	1361.44 ± 0.58	–
306.15 K	1360.82 ± 0.58	–
307.15 K	1360.21 ± 0.58	–
308.15 K	1359.59 ± 0.58	827.1 ± 44
309.15 K	1358.98 ± 0.58	–
310.15 K	1358.76 ± 0.58	–
311.15 K	1358.14 ± 0.58	–
312.15 K	1357.52 ± 0.58	–
313.15 K	1356.9 ± 0.58	612.2 ± 31
314.15 K	1356.28 ± 0.58	–
315.15 K	1355.67 ± 0.57	–
316.15 K	1355.05 ± 0.57	–
317.15 K	1354.43 ± 0.57	–
318.15 K	1353.81 ± 0.57	463 ± 23
319.15 K	1353.19 ± 0.57	–
320.15 K	1352.57 ± 0.57	–
321.15 K	1351.96 ± 0.57	–
322.15 K	1351.34 ± 0.57	–
323.15 K	1350.72 ± 0.57	356.8 ± 17
324.15 K	1350.11 ± 0.57	–
325.15 K	1349.49 ± 0.57	–
326.15 K	1348.88 ± 0.57	–
327.15 K	1348.27 ± 0.57	–
328.15 K	1347.65 ± 0.57	279.7 ± 13
329.15 K	1347.04 ± 0.57	–
330.15 K	1346.43 ± 0.57	–
331.15 K	1345.82 ± 0.57	–
332.15 K	1345.2 ± 0.57	–
333.15 K	1344.6 ± 0.57	222.6 ± 9.9
334.15 K	1343.99 ± 0.57	–
335.15 K	1343.38 ± 0.57	–
336.15 K	1342.77 ± 0.57	–
337.15 K	1342.16 ± 0.57	–
338.15 K	1341.56 ± 0.56	179.6 ± 7.8
339.15 K	1340.95 ± 0.56	–
340.15 K	1340.35 ± 0.56	–
341.15 K	1339.75 ± 0.56	–
342.15 K	1339.14 ± 0.56	–
343.15 K	1338.54 ± 0.56	146.7 ± 6.2
344.15 K	1337.94 ± 0.56	–
345.15 K	1337.34 ± 0.56	–
346.15 K	1336.74 ± 0.56	–
347.15 K	1336.14 ± 0.56	–
348.15 K	1335.54 ± 0.56	121.2 ± 5.1
349.15 K	1334.94 ± 0.56	–
350.15 K	1334.35 ± 0.56	–
351.15 K	1333.75 ± 0.56	–
352.15 K	1333.16 ± 0.56	–
353.15 K	1332.57 ± 0.56	101.2 ± 4.2
354.15 K	1331.97 ± 0.56	–
355.15 K	1331.38 ± 0.56	–
356.15 K	1330.79 ± 0.56	–
357.15 K	1330.2 ± 0.56	–
358.15 K	1329.61 ± 0.56	85.2 ± 3.5
359.15 K	1329.02 ± 0.56	–
360.15 K	1328.44 ± 0.56	–
361.15 K	1327.85 ± 0.56	–
362.15 K	1327.26 ± 0.56	–
363.15 K	1326.68 ± 0.55	72.4 ± 2.9
368.15 K	–	61.9 ± 2.5
373.15 K	–	53.4 ± 2.2

CCn1cc[n+](C)c1.COS(=O)(=O)[O-] [1-ethyl-3-methylimidazolium methylsulfate]
Conditions	mass density [kg/m3]	viscosity [mPa·s]
283.15 K	–	169.5 ± 7.3
288.15 K	–	128.6 ± 5.4
293.15 K	1289.48 ± 0.53	99.7 ± 4.1
294.15 K	1288.8 ± 0.53	–
295.15 K	1288.1 ± 0.53	–
296.15 K	1287.41 ± 0.53	–
297.15 K	1286.71 ± 0.53	–
298.15 K	1286.02 ± 0.53	78.8 ± 3.2
299.15 K	1285.33 ± 0.53	–
300.15 K	1284.64 ± 0.52	–
301.15 K	1283.95 ± 0.52	–
302.15 K	1283.26 ± 0.52	–
303.15 K	1282.57 ± 0.52	63.4 ± 2.6
304.15 K	1281.89 ± 0.52	–
305.15 K	1281.2 ± 0.52	–
306.15 K	1280.52 ± 0.52	–
307.15 K	1279.84 ± 0.52	–
308.15 K	1279.15 ± 0.52	51.8 ± 2.1
309.15 K	1278.48 ± 0.52	–
310.15 K	1277.8 ± 0.52	–
311.15 K	1277.12 ± 0.52	–
312.15 K	1276.44 ± 0.52	–
313.15 K	1275.76 ± 0.52	42.9 ± 1.7
314.15 K	1275.09 ± 0.52	–
315.15 K	1274.41 ± 0.52	–
316.15 K	1273.74 ± 0.52	–
317.15 K	1273.07 ± 0.52	–
318.15 K	1272.4 ± 0.52	35.9 ± 1.5
319.15 K	1271.72 ± 0.52	–
320.15 K	1271.05 ± 0.52	–
321.15 K	1270.38 ± 0.52	–
322.15 K	1269.71 ± 0.52	–
323.15 K	1269.04 ± 0.51	30.5 ± 1.2
324.15 K	1268.37 ± 0.51	–
325.15 K	1267.71 ± 0.51	–
326.15 K	1267.04 ± 0.51	–
327.15 K	1266.38 ± 0.51	–
328.15 K	1265.71 ± 0.51	26.1 ± 1.1
329.15 K	1265.05 ± 0.51	–
330.15 K	1264.39 ± 0.51	–
331.15 K	1263.72 ± 0.51	–
332.15 K	1263.06 ± 0.51	–
333.15 K	1262.4 ± 0.51	22.6 ± 0.9
334.15 K	1261.74 ± 0.51	–
335.15 K	1261.08 ± 0.51	–
336.15 K	1260.42 ± 0.51	–
337.15 K	1259.76 ± 0.51	–
338.15 K	1259.1 ± 0.51	19.7 ± 0.8
339.15 K	1258.44 ± 0.51	–
340.15 K	1257.78 ± 0.51	–
341.15 K	1257.13 ± 0.51	–
342.15 K	1256.47 ± 0.51	–
343.15 K	1255.81 ± 0.51	17.3 ± 0.7
344.15 K	1255.15 ± 0.51	–
345.15 K	1254.5 ± 0.51	–
346.15 K	1253.84 ± 0.5	–
347.15 K	1253.19 ± 0.5	–
348.15 K	1252.54 ± 0.5	15.3 ± 0.6
349.15 K	1251.88 ± 0.5	–
350.15 K	1251.23 ± 0.5	–
351.15 K	1250.58 ± 0.5	–
352.15 K	1249.93 ± 0.5	–
353.15 K	1249.28 ± 0.5	13.6 ± 0.6
354.15 K	1248.63 ± 0.5	–
355.15 K	1247.98 ± 0.5	–
356.15 K	1247.33 ± 0.5	–
357.15 K	1246.68 ± 0.5	–
358.15 K	1246.03 ± 0.5	12.2 ± 0.5
359.15 K	1245.38 ± 0.5	–
360.15 K	1244.74 ± 0.5	–
361.15 K	1244.09 ± 0.5	–
362.15 K	1243.44 ± 0.5	–
363.15 K	1242.8 ± 0.5	11 ± 0.4
368.15 K	–	9.9 ± 0.4
373.15 K	–	9 ± 0.4

Source: the NIST ThermoML archive (doi:10.1021/je200434a)
